{"source": "patent US9816075B2", "about": "“Compounds with modifying activity enhanced under hypoxic conditions” (Board of Regents, The University of Texas System, priority 2005, dated 2017)", "key": {"[1]": {"test_system": "supercoiled pUC18 DNA", "assay": "Modification (strand breaks) of supercoiled plasmid DNA, gel electrophoresis", "format": "biochemical", "details": "12.8 μM, anaerobic, about one hour", "procedure": "Referring now to FIG. 6, supercoiled DNA (0.154 mM base pairs) was modified by a diastereomeric mixture of the P^4+ complex in the presence and absence of a reducing agent. Lane M was the marker lane. Lane 1 was a DNA control without a reducing agent. Lane 2 included DNA without P^4+ under aerobic conditions (e.g., in the presence of oxygen or O2) with GSH, Lane 2′ included DNA with GSH (0.513 mM) without P^4+ under anaerobic conditions (e.g., hypoxia). Lanes 3, 4 and 5 were representative of modifications under aerobic (O2) conditions and lanes 2′, 3′, 4′ and 5′ were representative of modifications under anaerobic (hypoxia or absent O2) conditions. […]\nModification reactions were carried out in 0.5 mL Eppendorf tubes with 2 μL of a supercoiled pUC18 DNA (1 μg/1 μL) in a total volume of 20 μL using a 5 mM sodium phosphate buffer (pH 7). […] DNA was then dried for about 30 minutes and resuspended in about 40 μL of a storage buffer (e.g., 40 mM Tris-Cl, 1 mM EDTA at pH 8.0) with 65 μL of deionized water and 12 μL of a loading buffer (e.g., 30% glycerol in water with 0.1% w/v bromophenol blue), Each reaction was then evaluated by standard gel electrophoresis methods (e.g., loaded on 1% agarose gel stained with ethidium bromide and electrophoresed at about 80 volts for about 90 minutes using a Tris-acetate-EDTA buffer at pH 8.0). […]"}, "[2]": {"test_system": "H358, a bronchioalveolar non-small cell lung cancer cell line", "assay": "MTT drug sensitivity assay", "format": "cell-based", "details": "96 hours incubation; concentration that reduced formazan formation by 50%", "procedure": "For cytotoxicity of suitable compounds a standard MTT drug sensitivity assay was performed on cancer cells, including H358, a bronchioalveolar non-small cell lung cancer cell line. Cell density in an aliquot of cells growing in log phase was determined by counting trypan blue excluding cells in a hemocytometer and 20,000 cells were plated into each well of 96-well flat-bottomed microliter plates."}, "[3]": {"assay": "Animal toxicity screen / MTD by intraperitoneal injection", "details": "for MTD: intraperitoneal, mice, a = maximum dose due to poor solubility, b = acutely toxic with a single animal at 0.2 mg in 200 μL (about 6.0 mg/kg); for survival in toxicity screen: 0.2 mg in 200 μL 10 mM Tris buffer pH 7.5, intraperitoneal", "quoted_text": "Animal toxicity screens were performed by intraperitoneal injection of suitable compounds in C57BL/6NTac mice (each with an approximate weight of 30 g). For each animal, 0.2 mg of each compound in 200 μL 10 mM Tris buffer, pH 7.5 was used. […] These were further examined by injecting at least three mice with 200 μL of a freshly prepared aqueous solution of each compound at concentrations of 0.5 mg/mL, 2 mg/mL, 5 mg/mL, 10 mg/mL, 25 mg/mL and 50 mg/mL to determine MTD values."}, "[4]": {"assay": "Cyclic voltammetry / reduction potentials", "format": "physicochemical", "details": "cyclic voltammetry in aqueous solution, versus normal hydrogen electrode", "description": "This is depicted in FIG. 4 in which compounds having a tatpp or tatpq bridging ligand are provided as examples. Preferred bridging ligands have modest potentials in order for them to be accessible in a cellular milieu. […] For TJ-7p of FIG. 2, a compound in which tatpq is the bridging ligand, the first two reductions were at 70 mV and −80 mV versus the normal hydrogen electrode. These potentials are modest and easily accessible in a cellular milieu.\nThe reduction potential for compounds is such that these compounds are accessible to one or more reducing agents, especially in biologic conditions. For example, the bridging ligand, tatpp, when bound by two ruthenium ions in P^4+, has a reduction potential […] of about −0.22 V versus Ag/AgCl in acetonitrile. An alternate charged form of P^4+, P^3+, has an E1/2 of about −0.71 V versus Ag/AgCl in acetonitrile. These E1/2 values of the complexes make them accessible to one or more suitable reducing agents in biologic conditions."}, "[5]": {"test_system": "calf thymus Topo I", "assay": "Topoisomerase I relaxation of supercoiled DNA", "format": "biochemical", "details": "0.62-3.08 μM", "procedure": "FIGS. 19 and 20 illustrate the ability of suitable compounds to modify Topo I and Topo II. […] For FIG. 19, lane M was the marker lane containing forms I, II and III of a DNA. For all other lanes, the DNA was supercoiled pUC18 at 30.8 μM per reaction. Lane 1 was, the DNA used was pUC18 at 30.8 μM base pairs per reaction, without compound or inhibitor. Lane 2 was DNA with Tope I and no compound. Lane 3 was DNA with inhibitor, CPT. Lane 4-6 included varying concentrations of P^4+ (3.08 μM, 1.54 μM and 0.62 μM, respectively). Lane 7-9 included varying concentrations of Q^4+ (3.08 μM, 1.54 μM and 0.62 μM, respectively).\nReaction conditions for FIGS. 19 and 20 included the addition of DNA and 5 units of calf thymus Topo I in the presence or absence of either a known inhibitor (CPT), P^4+ or Q^4+. Both P^4+ and Q^4+ were examined at varying concentrations, 0.62 μM-3.08 μM. Samples were incubated at 37 degrees Centigrade in an assay buffer (e.g., 10 mM Tri-HCl at pH 7.9, 150 mM NaCl, 1 mM EDTA, 0.1% BSA, 0.1 mM spermidine, and 5% glycerol) for about 30 minutes to allow for appropriate cleavage and religation. Relaxed intermediates were then trapped by adding 5 μL of a stopping buffer (e.g., 5% SDS, 0.05% bromophenol blue and 30% glycerol). […]"}, "[6]": {"test_system": "Topo II", "assay": "Topoisomerase II activity on supercoiled DNA", "format": "biochemical", "details": "0.46-2.31 μM", "procedure": "As shown, M was the marker lane containing forms I, II and III of a DNA. For all other lanes, the DNA was supercoiled pUC18 at 30.8 μM base pairs per reaction. Lane 1 was DNA without compound or inhibitor. Lane 2 was DNA with Topo H and no compound. Lane 3 was DNA with inhibitor, m-AMSA. Lanes 4-6 included varying concentrations of P^4+ (2.31 μM, 1.15 μM and 0.46 μM, respectively). Lanes 7-9 included varying concentrations of Q^4+ (2.31 μM, 1.15 μM and 0.46 μM, respectively).\nFor conditions using Topo II, reactions were generally performed as described for Topo I, except that 23.1 μM of DNA was used per reaction along with either the inhibitor (m-AMSA) or varying concentrations of P^4+ or Q^4+ (0.46 to 2.31 μM) in a total volume of 20 μL. The assay buffer was altered for improved Topo II activity (using 10 mM Tris-HCl at pH 7.9, 50 mM NaCl, 50 mM KCl, 5 mM MgCl2, 0.1 mM EDTA, 0.15 mg mL BSA, and 1 mM ATP) as was the running buffer (using 100 mM Tris-borate, pH 8.3, 2 mM BDTA)."}}, "note": "Marks after values point to notes of the source that are not given here.", "data": [{"substance": "Iron(II)-Bleomycin [Fe-BLM]", "values": [{"measurement": "DNA modification in the absence of oxygen, FIG. 7", "setting": "[1]", "value": "unable to modify or break DNA in the absence of oxygen"}]}, {"substance": "[Ru2(bpy)2(tpphz)(C2O4)2]", "values": [{"measurement": "IC50", "setting": "[2]", "value": "100 ± 10", "unit": "µM"}, {"measurement": "MTD", "setting": "[3]", "value": ">15^a mg/kg"}]}, {"substance": "[Ru2(bpy)2(tpphz)(CH3CN)4]^4+", "values": [{"measurement": "IC50", "setting": "[2]", "value": "21 ± 2", "unit": "µM"}, {"measurement": "MTD", "setting": "[3]", "value": "<6^b mg/kg"}]}, {"substance": "[Ru2(bpy)2(tpphz)(CO)2(Cl)2]^4+", "values": [{"measurement": "IC50", "setting": "[2]", "value": "8 ± 1", "unit": "µM"}, {"measurement": "MTD", "setting": "[3]", "value": "<6^b mg/kg"}]}, {"substance": "[Ru2(bpy)2(tpphz)(CO)4]^4+", "values": [{"measurement": "MTD", "setting": "[3]", "value": ">6^a mg/kg"}]}, {"substance": "[Ru2(phen)4tatpp]^4+ [[Ru2(phen)4(tatpp)]^4+]", "values": [{"measurement": "IC50", "setting": "[2]", "value": "8 ± 1", "unit": "µM"}, {"measurement": "survival in toxicity screen", "setting": "[3]", "value": "survived"}, {"measurement": "first reduction potential", "setting": "[4]", "value": 170, "unit": "mV"}, {"measurement": "second reduction potential", "setting": "[4]", "value": "−180", "unit": "mV"}]}, {"substance": "[Ru2(phen)4tatpq]^4+ [[Ru2(phen)4(tatpq)]^4+]", "values": [{"measurement": "Topo I inhibition compared with camptothecin (CPT)", "setting": "[5]", "value": "better than that of the known inhibitor, camptothecin"}, {"measurement": "Topo I inhibition, FIG. 19", "setting": "[5]; 37 degrees Centigrade, about 30 minutes", "value": "inhibited Topo I and its relaxation of supercoiled DNA"}, {"measurement": "Topo II inhibition compared with amsacrine (m-AMSA)", "setting": "[6]", "value": "better than that of the known inhibitor, amsacrine"}, {"measurement": "Topo II inhibition, FIG. 20", "setting": "[6]", "value": "inhibited Topo II and its activity on supercoiled DNA"}, {"measurement": "IC50", "setting": "[2]", "value": "1 ± 0.1", "unit": "µM"}, {"measurement": "survival in toxicity screen", "setting": "[3]", "value": "survived"}, {"measurement": "first reduction potential", "setting": "[4]", "value": 70, "unit": "mV"}, {"measurement": "second reduction potential", "setting": "[4]", "value": "−80", "unit": "mV"}]}]}
